pIC50: −log10 of the molar value.
Key:
mTORC = biological target: T1, mTORC (Homo sapiens, UniProt P42345); test: mTOR inhibition assay (Table 4, mTORC); type: biochemical; details: binned
T1 construct: purchased Invitrogen
Procedure: The compounds described herein can be tested against recombinant mTOR (Invitrogen) in an assay containing 50 mM HEPES, pH 7.5, 1 mM EGTA, 10 mM MgCl2, 2.5 mM, 0.01% Tween, 10 μM ATP (2.5 μCi of […]), and 3 μg/mL BSA. Rat recombinant PHAS-1/4EBP1 (Calbiochem; 2 mg/mL) is used as a substrate. Reactions are terminated by spotting onto nitrocellulose, which is washed with 1M NaCl/1% phosphoric acid (approximately 6 times, 5-10 minutes each). Sheets are dried and the transferred radioactivity quantitated by phosphorimaging.
Other kits or systems for assaying mTOR activity are commercially avaiable. For instance, one can use Invitrogen's LanthaScreen™ Kinase assay to test the inhibitors of mTOR disclosed herein. This assay is a time resolved FRET platform that measures the phosphorylation of GFP labeled 4EBP1 by mTOR kinase. The kinase reaction is performed in a white 384 well microtitre plate. The total reaction volume is 20 ul per well and the reaction buffer composition is 50 mM HEPES pH7.5, 0.01% Polysorbate 20, 1 mM EGTA, 10 mM MnC12, and 2 mM DTT. In the first step, each well receives 2 ul of test compound in 20% dimethylsulphoxide resulting in a 2% DMSO final concentration. Next, 8 ul of mTOR diluted in reaction buffer is added per well for a 60 ng/ml final concentration. To start the reaction, 10 ul of an ATP/GFP-4EBP1 mixture (diluted in reaction buffer) is added per well for a final concentration of 10 uM ATP and 0.5 uM GFP-4EBP1. The plate is sealed and incubated for 1 hour at room temperature. The reaction is stopped by adding 10 ul per well of a Tb-anti-pT46 4EBP1 antibody/EDTA mixture (diluted in TR-FRET buffer) for a final concentration of 1.3 nM antibody and 6.7 mM EDTA. The plate is sealed, incubated for 1 hour at room temperature, and then read on a plate reader set up for LanthaScreen™ TR-FRET. Data is analyzed and IC50s are generated using GraphPad Prism 5.

PI3K beta = biological target: T2, PI3K beta (Homo sapiens, UniProt P42338); test: PI3K beta inhibition assay; type: biochemical; details: binned
T2 construct: purchased Upstate
Procedure: (§1) For TLC analysis, reactions are then terminated by the addition of 105 μl 1N HCl followed by 160 μl CHC13:MeOH (1:1). The biphasic mixture is vortexed, briefly centrifuged, and the organic phase is transferred to a new tube using a gel loading pipette tip precoated with CHCl3. […] The TLC plates are then dried, exposed to a phosphorimager screen (Storm, Amersham), and quantitated.
(§2) Anr exemplary system is PI 3-Kinase (human) HTRF™ Assay from Upstate. […] Briefly, the assay is a time resolved FRET assay that indirectly measures PIP3 product formed by the activity of a PI3-K. The kinase reaction is performed in a microtitre plate (e.g., a 384 well microtitre plate). The total reaction volume is approximately 20 ul per well. In the first step, each well receives 2 ul of test compound in 20% dimethylsulphoxide resulting in a 2% DMSO final concentration. Next, approximately 14.5 ul of a kinase/PIP2 mixture (diluted in 1× reaction buffer) is added per well for a final concentration of 0.25-0.3 ug/ml kinase and 10 uM PIP2. The plate is sealed and incubated for 15 minutes at room temperature. To start the reaction, 3.5 ul of ATP (diluted in 1× reaction buffer) is added per well for a final concentration of 10 uM ATP. The plate is sealed and incubated for 1 hour at room temperature. The reaction is stopped by adding 5 ul of Stop Solution per well and then 5 ul of Detection Mix is added per well. The plate is sealed, incubated for 1 hour at room temperature, and then read on an appropriate plate reader. Data is analyzed and IC50s are generated using GraphPad Prism 5.

PI3K alpha = biological target: T3, PI3K alpha (Homo sapiens, UniProt P42336); test: PI3K alpha inhibition assay; type: biochemical; details: binned
T3 construct: purchased Upstate
Procedure: as §1, §2

PI3K delta = biological target: T4, PI3K delta (Homo sapiens, UniProt O00329); test: PI3K delta inhibition assay; type: biochemical; details: binned
T4 construct: purchased Upstate
Procedure: as §1, §2

PI3K gamma = biological target: T5, PI3K gamma (Homo sapiens, UniProt P48736); test: PI3K gamma inhibition assay; type: biochemical; details: binned
T5 construct: purchased Sigma
Procedure: For TLC analysis, reactions are then terminated by the addition of 105 μl 1N HCl followed by 160 μl CHC13:MeOH (1:1). The biphasic mixture is vortexed, briefly centrifuged, and the organic phase is transferred to a new tube using a gel loading pipette tip precoated with CHCl3. This extract is spotted on TLC plates and developed for 3-4 hours in a 65:35 solution of n-propanol:1M acetic acid. The TLC plates are then dried, exposed to a phosphorimager screen (Storm, Amersham), and quantitated. For each compound, kinase activity is measured at 10-12 inhibitor concentrations representing two-fold dilutions from the highest concentration tested (typically, 200 μM).
Other commercial kits or systems for assaying PI3-K activities are available. The commercially available kits or systems can be used to screen for inhibitors and/or agonists of PI3-Ks including but not limited to PI 3-Kinase α, β, δ, and γ. Anr exemplary system is PI 3-Kinase (human) HTRF™ Assay from Upstate. […] Briefly, the assay is a time resolved FRET assay that indirectly measures PIP3 product formed by the activity of a PI3-K. The kinase reaction is performed in a microtitre plate (e.g., a 384 well microtitre plate). […] The plate is sealed, incubated for 1 hour at room temperature, and then read on an appropriate plate reader. Data is analyzed and IC50s are generated using GraphPad Prism 5.

PC3 = test: Tumor cell line proliferation assay (Alamar Blue); type: cell-based; details: Homo sapiens, PC-3; binned
Procedure: The ability of one or more subject compounds to inhibit tumor cell line proliferation is determined according to standard procedures known in the art. For instance, an in vitro cellular proliferation assay can be performed to measure the metabolic activity of live cells. The assay is performed in a 96 well microtiter plate using Alamar Blue reduction. Human tumor cell lines are obtained from ATCC (e.g., MCF7, U-87 MG, MDA-MB-468, PC-3), grown to confluency in T75 flasks, trypsinized with 0.25% trypsin, washed one time with Tumor Cell Media (DMEM+10% FBS), and plated in 90 ul at 5,000 cells/well in Tumor Cell Media. A compound disclosed herein is diluted in Tumor Cell Media and added in a 10 ul volume. Plates are incubated for 72 hours at 37 C and 5% CO2. A volume of 10 uL of Alamar Blue reagent is added to each well and plates are incubated for 3 hours at 37 C and 5% CO2. Alamar Blue fluoresce is read at 560Ex/590Em, and IC50 values are calculated using GraphPad Prism 5.

B6.Sle1z.Sle3z model = details: cited from earlier work
[1] = PBS pH 7.4, 37° C., over the course of 24 hours; cited from earlier work
[2] = tested on: p190 transduced leukemic cells; details: about 70 mg/kg twice daily; cited from earlier work
[3] = control or reference compounds, 5 μM; cited from earlier work

T1 sequence (P42345 1360-2549 limits assumed): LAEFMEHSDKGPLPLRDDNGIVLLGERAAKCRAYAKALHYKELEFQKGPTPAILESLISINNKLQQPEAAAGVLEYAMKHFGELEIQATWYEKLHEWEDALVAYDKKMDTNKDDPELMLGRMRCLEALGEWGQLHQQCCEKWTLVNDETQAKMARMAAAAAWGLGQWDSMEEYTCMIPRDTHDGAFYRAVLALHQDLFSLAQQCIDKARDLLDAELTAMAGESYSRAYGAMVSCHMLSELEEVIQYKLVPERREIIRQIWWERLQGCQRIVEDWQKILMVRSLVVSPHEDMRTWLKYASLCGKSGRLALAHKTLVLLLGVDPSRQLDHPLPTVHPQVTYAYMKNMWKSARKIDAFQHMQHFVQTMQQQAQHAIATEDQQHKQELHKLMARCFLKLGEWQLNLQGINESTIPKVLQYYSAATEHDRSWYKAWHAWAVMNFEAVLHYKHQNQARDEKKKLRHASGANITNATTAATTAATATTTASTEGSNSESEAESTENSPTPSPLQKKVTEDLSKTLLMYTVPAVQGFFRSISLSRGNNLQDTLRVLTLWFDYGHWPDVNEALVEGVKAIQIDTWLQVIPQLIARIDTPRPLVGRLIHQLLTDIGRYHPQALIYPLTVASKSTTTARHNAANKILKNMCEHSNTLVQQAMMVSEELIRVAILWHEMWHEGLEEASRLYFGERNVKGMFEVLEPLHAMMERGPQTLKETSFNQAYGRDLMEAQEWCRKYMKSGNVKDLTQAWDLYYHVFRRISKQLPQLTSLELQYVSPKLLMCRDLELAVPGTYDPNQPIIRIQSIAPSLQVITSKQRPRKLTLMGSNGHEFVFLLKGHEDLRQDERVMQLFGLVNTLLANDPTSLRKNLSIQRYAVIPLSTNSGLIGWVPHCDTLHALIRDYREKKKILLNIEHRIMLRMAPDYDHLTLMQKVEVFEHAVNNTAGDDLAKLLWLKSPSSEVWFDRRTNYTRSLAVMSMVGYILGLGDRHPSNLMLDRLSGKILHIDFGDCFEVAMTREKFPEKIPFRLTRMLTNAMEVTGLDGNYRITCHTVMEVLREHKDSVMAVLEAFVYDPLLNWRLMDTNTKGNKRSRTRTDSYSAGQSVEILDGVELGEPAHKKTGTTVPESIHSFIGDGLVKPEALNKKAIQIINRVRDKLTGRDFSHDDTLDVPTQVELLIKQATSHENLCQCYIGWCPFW
T4 sequence (O00329 whole entry): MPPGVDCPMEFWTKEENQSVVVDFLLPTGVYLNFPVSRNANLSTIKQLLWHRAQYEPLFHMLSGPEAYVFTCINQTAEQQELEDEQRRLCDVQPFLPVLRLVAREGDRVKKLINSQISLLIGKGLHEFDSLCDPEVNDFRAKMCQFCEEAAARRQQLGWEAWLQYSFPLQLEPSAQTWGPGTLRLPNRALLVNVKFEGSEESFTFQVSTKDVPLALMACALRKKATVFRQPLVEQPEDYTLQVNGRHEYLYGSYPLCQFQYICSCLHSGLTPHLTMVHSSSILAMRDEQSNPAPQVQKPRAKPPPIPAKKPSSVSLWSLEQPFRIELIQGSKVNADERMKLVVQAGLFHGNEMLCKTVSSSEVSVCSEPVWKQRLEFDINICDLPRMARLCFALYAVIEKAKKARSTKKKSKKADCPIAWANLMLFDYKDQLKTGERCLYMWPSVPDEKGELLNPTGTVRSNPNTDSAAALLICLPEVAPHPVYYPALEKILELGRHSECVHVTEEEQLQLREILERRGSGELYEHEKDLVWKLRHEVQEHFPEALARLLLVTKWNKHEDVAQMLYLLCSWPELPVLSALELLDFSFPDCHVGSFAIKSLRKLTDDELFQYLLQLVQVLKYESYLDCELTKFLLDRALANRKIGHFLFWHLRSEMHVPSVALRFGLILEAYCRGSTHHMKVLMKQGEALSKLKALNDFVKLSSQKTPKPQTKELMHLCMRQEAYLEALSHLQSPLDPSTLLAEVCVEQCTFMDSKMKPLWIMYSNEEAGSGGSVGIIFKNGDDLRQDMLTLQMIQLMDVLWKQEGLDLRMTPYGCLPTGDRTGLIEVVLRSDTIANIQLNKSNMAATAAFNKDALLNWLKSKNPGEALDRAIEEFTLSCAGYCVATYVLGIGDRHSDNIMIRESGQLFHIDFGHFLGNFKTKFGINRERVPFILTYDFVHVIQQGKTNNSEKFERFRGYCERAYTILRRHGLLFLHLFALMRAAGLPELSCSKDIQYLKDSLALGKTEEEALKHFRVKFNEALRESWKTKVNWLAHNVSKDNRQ
T4 sequence (P27986 whole entry partner): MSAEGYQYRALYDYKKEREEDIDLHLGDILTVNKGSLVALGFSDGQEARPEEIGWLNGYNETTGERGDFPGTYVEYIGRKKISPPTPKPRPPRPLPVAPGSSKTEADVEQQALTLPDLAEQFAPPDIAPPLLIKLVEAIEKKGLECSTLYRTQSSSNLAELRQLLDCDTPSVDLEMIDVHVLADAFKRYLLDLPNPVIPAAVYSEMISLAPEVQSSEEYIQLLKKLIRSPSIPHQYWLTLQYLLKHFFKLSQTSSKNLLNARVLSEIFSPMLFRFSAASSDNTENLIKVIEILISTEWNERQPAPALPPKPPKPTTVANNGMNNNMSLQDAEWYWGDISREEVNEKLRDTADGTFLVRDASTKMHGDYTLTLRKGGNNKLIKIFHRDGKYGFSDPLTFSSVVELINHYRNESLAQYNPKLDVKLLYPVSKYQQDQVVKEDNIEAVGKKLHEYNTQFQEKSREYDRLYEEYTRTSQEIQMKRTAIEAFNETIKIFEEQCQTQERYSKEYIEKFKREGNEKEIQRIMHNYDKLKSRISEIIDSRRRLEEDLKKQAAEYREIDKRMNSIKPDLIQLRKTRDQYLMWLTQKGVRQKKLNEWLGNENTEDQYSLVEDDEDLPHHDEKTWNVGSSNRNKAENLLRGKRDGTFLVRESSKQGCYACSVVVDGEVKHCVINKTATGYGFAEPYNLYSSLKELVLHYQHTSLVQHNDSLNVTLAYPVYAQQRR
T3 sequence (P42336 whole entry): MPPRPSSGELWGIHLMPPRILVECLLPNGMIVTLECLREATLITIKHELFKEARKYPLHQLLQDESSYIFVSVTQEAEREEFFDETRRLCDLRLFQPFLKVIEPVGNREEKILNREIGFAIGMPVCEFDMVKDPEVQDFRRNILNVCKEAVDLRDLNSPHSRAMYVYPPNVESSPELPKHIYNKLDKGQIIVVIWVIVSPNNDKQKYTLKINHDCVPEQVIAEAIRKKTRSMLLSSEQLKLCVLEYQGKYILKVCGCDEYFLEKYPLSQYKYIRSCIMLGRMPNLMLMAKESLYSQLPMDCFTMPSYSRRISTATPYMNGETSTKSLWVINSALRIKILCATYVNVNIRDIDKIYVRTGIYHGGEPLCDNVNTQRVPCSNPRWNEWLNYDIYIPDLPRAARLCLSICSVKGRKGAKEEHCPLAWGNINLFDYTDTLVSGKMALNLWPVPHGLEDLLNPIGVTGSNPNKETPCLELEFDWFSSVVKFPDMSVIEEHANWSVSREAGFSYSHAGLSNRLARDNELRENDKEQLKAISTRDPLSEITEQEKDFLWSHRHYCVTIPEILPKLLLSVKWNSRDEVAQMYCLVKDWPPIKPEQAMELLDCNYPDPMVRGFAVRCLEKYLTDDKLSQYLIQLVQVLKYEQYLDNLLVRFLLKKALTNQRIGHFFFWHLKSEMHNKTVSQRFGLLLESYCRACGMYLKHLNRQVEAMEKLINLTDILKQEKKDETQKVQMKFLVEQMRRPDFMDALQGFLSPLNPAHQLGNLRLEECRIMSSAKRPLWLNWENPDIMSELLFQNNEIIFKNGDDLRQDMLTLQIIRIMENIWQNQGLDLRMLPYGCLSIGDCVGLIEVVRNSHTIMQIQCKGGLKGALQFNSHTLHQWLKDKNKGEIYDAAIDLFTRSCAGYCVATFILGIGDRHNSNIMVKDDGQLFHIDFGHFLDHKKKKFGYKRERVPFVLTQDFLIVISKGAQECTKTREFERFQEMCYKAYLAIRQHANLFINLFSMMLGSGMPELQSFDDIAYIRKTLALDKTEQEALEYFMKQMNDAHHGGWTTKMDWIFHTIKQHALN
T3 sequence (P27986 whole entry partner): as the sequence (P27986 whole entry partner) above

Structure (SMILES) | pIC50 (mTORC) | pIC50 (PI3K alpha) | other results
CC(=O)Nc1nc2ccc(-c3nn(C(C)C)c4ncnc(N)c34)cc2s1 [Compound 1] | ≥ 7.30 | ≥ 6.30 | pIC50 (PI3K beta): < 6.00
CC(C)n1nc(-c2ccc3ncsc3c2)c2c(N)ncnc21 [Compound 2] | < 6.00 | – | –
CC(C)n1nc(-c2ccc3nc(N)sc3c2)c2c(N)ncnc21 [Compound 3] | ≥ 7.30 | ≥ 6.30 | pIC50 (PI3K delta): ≥ 7.00; pIC50 (PI3K beta): < 6.00
CC(=O)Nc1nc2ccc(-c3nn(C4CCCC4)c4ncnc(N)c34)cc2s1 [Compound 4] | ≥ 7.30 | – | pIC50 (PI3K beta): < 6.00
CCn1nc(-c2ccc3nc(NC(C)=O)sc3c2)c2c(N)ncnc21 [Compound 5] | ≥ 7.30 | ≥ 7.00 | pIC50 (PI3K beta): < 6.00
CC(=O)Nc1nc2ccc(-c3nn(C)c4ncnc(N)c34)cc2s1 [Compound 6] | < 6.00 | ≥ 6.00 | –
CC(C)C(=O)Nc1nc2ccc(-c3nn(C(C)C)c4ncnc(N)c34)cc2s1 [Compound 7] | < 6.00 | – | –
CC(C)n1nc(-c2ccc3nc(NC(=O)C4CC4)sc3c2)c2c(N)ncnc21 [Compound 8] | ≥ 6.30 | ≥ 6.00 | –
CCC(=O)Nc1nc2ccc(-c3nn(C(C)C)c4ncnc(N)c34)cc2s1 [Compound 9] | ≥ 6.30 | ≥ 6.30 | –
CC(=O)Nc1nc2ccc(-c3nn(C4CCC4)c4ncnc(N)c34)cc2s1 [Compound 10] | ≥ 7.00 | ≥ 7.00 | pIC50 (PI3K delta): ≥ 7.00
CNc1nc2ccc(-c3nn(C(C)C)c4ncnc(N)c34)cc2s1 [Compound 11] | ≥ 7.30 | ≥ 7.00 | pIC50 (PI3K delta): ≥ 6.30; pIC50 (PI3K beta): < 6.00
CCNc1nc2ccc(-c3nn(C(C)C)c4ncnc(N)c34)cc2s1 [Compound 12] | ≥ 6.30 | ≥ 6.30 | pIC50 (PI3K gamma): ≥ 6.30; pIC50 (PI3K delta): ≥ 6.00
CC(C)n1nc(-c2ccc3nc(NCCN4CCOCC4)sc3c2)c2c(N)ncnc21 [Compound 13] | < 6.00 | < 6.00 | –
CC(C)n1nc(-c2ccc3nc(N4CCOCC4)sc3c2)c2c(N)ncnc21 [Compound 14] | < 6.00 | < 6.00 | –
CC(C)n1nc(-c2ccc3nc(NC4CC4)sc3c2)c2c(N)ncnc21 [Compound 15] | ≥ 6.30 | < 6.00 | pIC50 (PI3K beta): < 6.00
CC(C)n1nc(-c2ccc3nc(NCCO)sc3c2)c2c(N)ncnc21 [Compound 16] | ≥ 6.00 | ≥ 6.00 | –
CC(=O)Nc1nc2cc(-c3nn(C(C)C)c4ncnc(N)c34)ccc2s1 [Compound 17] | ≥ 6.00 | – | –
CNC(=O)Cn1nc(-c2ccc3nc(NC(C)=O)sc3c2)c2c(N)ncnc21 [Compound 18] | < 6.00 | – | pIC50 (PI3K gamma): < 6.00; pIC50 (PI3K beta): < 6.00
CC(=O)Nc1nc2ccc(-c3nn(C4CCOCC4)c4ncnc(N)c34)cc2s1 [Compound 19] | ≥ 7.30 | ≥ 6.30 | –
CNC(=O)Nc1nc2ccc(-c3nn(C(C)C)c4ncnc(N)c34)cc2s1 [Compound 20] | ≥ 7.30 | – | –
CNC(=O)Nc1nc2ccc(-c3cn(C4CCOCC4)c4ncnc(N)c34)cc2s1 [Compound 21] | ≥ 7.30 | – | pIC50 (PC3): ≥ 6.00
CNC(=O)Nc1nc2ccc(-c3cn(C(C)C)c4ncnc(N)c34)cc2s1 [Compound 22] | ≥ 7.30 | – | pIC50 (PC3): ≥ 7.00
CNC(=O)Nc1nc2ccc(-c3cn(C4CCN(C(C)=O)CC4)c4ncnc(N)c34)cc2s1 [Compound 23] | ≥ 7.30 | – | pIC50 (PC3): < 6.00; pIC50 (PI3K beta): ≥ 7.00
CO[C@H]1C[C@@H]2CC[C@@H](C)[C@@](O)(O2)C(=O)C(=O)N2CCCC[C@H]2C(=O)O[C@H]([C@H](C)C[C@@H]2CC[C@@H](OCCO)[C@H](OC)C2)CC(=O)[C@H](C)/C=C(\C)[C@@H](O)[C@@H](OC)C(=O)[C@H](C)C[C@H](C)/C=C/C=C/C=C/1C [RAD001] | – | – | lupus symptoms (B6.Sle1z.Sle3z model): ameliorate lupus symptoms
O=C(O)CCCc1ccc(N(CCCl)CCCl)cc1 [chlorambucil] | – | – | chemical stability [1]: largely hydrolyzed
Cc1ccc(NC(=O)c2ccc(CN3CCN(C)CC3)cc2)cc1Nc1nccc(-c2cccnc2)n1 [imatinib] | – | – | leukemogenesis [2]: delay but not cure leukemogenesis
CC(C)[N+](C)(CCOC(=O)C1c2ccccc2Oc2ccccc21)C(C)C [propantheline] | – | – | plasma stability [3]: intermediate plasma stability
CCCOc1cc(N)ccc1C(=O)OCCN(CC)CC [propoxycaine] | – | – | plasma stability [3]: low plasma stability
